Assay results taken from paper PMC12198292, “Advancing in vitro assessment of iodide uptake inhibition: integrating a novel biotransformation pretreatment step” (Archives of Toxicology, 2025).
Converted amounts (≈) assume the structure as drawn. “And” between values parts separate entries of the source, which are not always exact repeats. Equal values may be shown once. Read-outs that look alike come from different tables or passages of the source.

Experiments:
[1] = biological target: T1, NIS (Rattus norvegicus, UniProt Q63008); experiment: NIS-inhibition assay (iodide uptake, Sandell–Kolthoff reaction) on FRTL-5; format: cell-based; conditions: mean ± SD, ≥ 3 independent experiments; 2 h exposure; SK reaction
T1 construct: the endogenously NIS-expressing rat FRTL-5 cell line; host or cells: FRTL-5 (CVCL_0265)
T1 sequence (Q63008 1-618): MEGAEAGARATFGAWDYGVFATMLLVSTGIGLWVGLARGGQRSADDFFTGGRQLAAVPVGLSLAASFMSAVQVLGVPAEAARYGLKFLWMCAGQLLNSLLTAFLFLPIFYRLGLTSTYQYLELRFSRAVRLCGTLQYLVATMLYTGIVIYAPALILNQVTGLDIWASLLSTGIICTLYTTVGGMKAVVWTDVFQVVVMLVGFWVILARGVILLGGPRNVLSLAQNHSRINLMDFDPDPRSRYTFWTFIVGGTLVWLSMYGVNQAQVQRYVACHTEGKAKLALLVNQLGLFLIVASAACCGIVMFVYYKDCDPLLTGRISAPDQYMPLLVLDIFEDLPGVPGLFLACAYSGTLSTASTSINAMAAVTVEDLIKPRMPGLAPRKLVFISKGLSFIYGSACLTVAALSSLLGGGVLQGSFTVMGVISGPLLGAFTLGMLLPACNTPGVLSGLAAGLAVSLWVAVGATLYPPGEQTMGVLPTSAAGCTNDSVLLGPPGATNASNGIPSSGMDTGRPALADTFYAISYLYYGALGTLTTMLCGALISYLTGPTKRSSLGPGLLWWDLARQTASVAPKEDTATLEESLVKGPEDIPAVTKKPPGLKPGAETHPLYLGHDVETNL

[2] = design: method as in PubChem https://pubchem.ncbi.nlm.nih.gov/; conditions: ref PubChem https://pubchem.ncbi.nlm.nih.gov/; cited from earlier work
[3] = biological target: T2, human NIS (Homo sapiens, UniProt Q92911); experiment: Biotransformation (BTS, rat S9)-augmented NIS-inhibition assay, HEK293T NIS02
T2 sequence (Q92911 1-643): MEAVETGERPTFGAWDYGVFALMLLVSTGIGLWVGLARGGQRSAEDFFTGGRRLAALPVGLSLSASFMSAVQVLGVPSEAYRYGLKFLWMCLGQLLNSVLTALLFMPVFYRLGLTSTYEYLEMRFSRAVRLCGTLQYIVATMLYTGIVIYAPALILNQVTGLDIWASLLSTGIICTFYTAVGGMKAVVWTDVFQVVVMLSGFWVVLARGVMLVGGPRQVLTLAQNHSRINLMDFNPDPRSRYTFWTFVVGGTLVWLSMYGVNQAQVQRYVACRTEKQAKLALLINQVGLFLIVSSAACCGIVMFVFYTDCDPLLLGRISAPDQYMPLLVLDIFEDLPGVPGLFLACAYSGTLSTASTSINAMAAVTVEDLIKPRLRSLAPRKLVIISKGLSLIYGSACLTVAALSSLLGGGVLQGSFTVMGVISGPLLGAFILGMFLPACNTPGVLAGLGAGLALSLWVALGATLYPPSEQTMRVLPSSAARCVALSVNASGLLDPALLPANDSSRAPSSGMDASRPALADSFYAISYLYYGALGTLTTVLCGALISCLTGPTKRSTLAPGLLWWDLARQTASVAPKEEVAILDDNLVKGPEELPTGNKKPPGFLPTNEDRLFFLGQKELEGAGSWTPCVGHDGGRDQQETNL

[4] = design: method as in PubChem https://pubchem.ncbi.nlm.nih.gov/; conditions: ref PubChem https://pubchem.ncbi.nlm.nih.gov/; cited from earlier work; remark: listed apart in the source
[5] = biological target: T2, human NIS; experiment: NIS-inhibition assay (iodide uptake, Sandell–Kolthoff reaction) on HEK293T NIS 02; format: cell-based; design: host or cells: HEK293T (lentiviral transduction, puromycin selection, GFP sorting; lines NIS 02 and NIS C)
[6] = in vitro; conditions: human
[7] = biological target: T2, human NIS; design: host or cells: HEK293T (lentiviral transduction, puromycin selection, GFP sorting; lines NIS 02 and NIS C); method as in Dong et al., 2019; conditions: hNIS-HEK293T-EPA; SK; ref Dong et al., 2019; cited from earlier work
[8] = biological target: T2, human NIS; experiment: NIS-inhibition assay (iodide uptake, Sandell–Kolthoff reaction) on HEK293T NIS C; format: cell-based; design: host or cells: HEK293T (lentiviral transduction, puromycin selection, GFP sorting; lines NIS 02 and NIS C)
[9] = biological target: T2, human NIS; design: method as in Dong et al., 2019; conditions: MCF7hNIS; SK; ref Dong et al., 2019; read-out: Data from literature NIS IC20; cited from earlier work
[10] = biological target: T2, human NIS; design: host or cells: HEK293T (lentiviral transduction, puromycin selection, GFP sorting; lines NIS 02 and NIS C); conditions: hNIS-HEK293T-EPA, RAIU, cited from earlier work; for IC20: read-out: Data from literature NIS IC20; for IC50: read-out: Data from literature NIS IC50
[11] = biological target: T2, human NIS
[12] = test system: FRTL-5 cells; experiment: Neutral red uptake viability assay, FRTL-5; conditions: for NR IC20 FRTL-5: mean±SD, 2 h exposure
[13] = biological target: T1, NIS; conditions: FRTL-5, RAIU, ref Buckalew et al., 2020, cited from earlier work; for IC50: read-out: Data from literature NIS IC50
[14] = test system: HEK293T NIS C cells; experiment: Neutral red uptake viability assay, HEK293T NIS C; conditions: for NR IC20 HEK293T NISC: mean±SD, 2 h exposure
[15] = ref PubChem https://pubchem.ncbi.nlm.nih.gov/; cited from earlier work
[16] = test system: HEK293T NIS02 cells; experiment: Neutral red uptake viability assay, HEK293T NIS02; conditions: read-out: NR IC20 HEK293T NIS02; viability, neutral red assay; mean±SD; 2 h exposure
[17] = mean ± SD, ≥ 3 independent experiments, 2 h exposure, SK reaction, read-out: NIS IC50 HEK293T NIS 02
[18] = mean ± SD, ≥ 3 independent experiments, 2 h exposure, SK reaction

SMILES | IC50 [1] | log Kow [2] | Henry‘s law [4] | IC50 [5, 17] | NIS IC50 HEK293T NIS C [8, 18] | IC50 ([10]; ref US-EPA, 2024) [µM] | Data from literature NIS IC50 ([10]; ref Wang et al., 2018) | effect of fully active BTS (W/S9, W/cof) on NIS inhibition versus control setups [11] | NIS IC50 FRTL-5 [1] | NR IC20 FRTL-5 [12] | NIS IC50 HEK293T NIS 02 [5, 18] | NR IC20 HEK293T NISC [14] | Data from literature NIS IC50 ([10]; ref US-EPA, 2024) | solubility in water [15] [mg/mL] | IC50 [13] [µM] | IC50 ([10]; ref Buckalew et al., 2020) [µM] | other results
CCCCOC(=O)c1ccccc1C(=O)OCCCC [DBP, Dibutylphthalate] | 92.3 ± 11.8 µM | 4.5 | 1.81x10^-6 atm- m^3/mol | 51.7 µM and 52 µM | n.e and n.e. | 26.9 | n.e. | statistically significant reduction in NIS inhibition | – | – | – | – | – | – | – | – | increase of IC20 by preincubation in fully active BTS setup compared to the denatured BTS setup ([3]; W/S9, W/cof vs D S9, W/cof): more than ninefold; IC20 at 2 h [6]: 42 µM; Data from literature NIS IC50 [7]: n.e.; IC20 [9]: 63.1 µM; IC20 ([10]; ref Dong et al., 2019): 26.9 µM; IC20 ([10]; ref Hallinger et al., 2017): 191 µM; IC20 [11]: 5.57 ± 4.6 µM
CCOc1cc(C(C)(C)C)ccc1C1COC(c2c(F)cccc2F)=N1 (stereo not shown) [ETX, Etoxazole, reference compound] | – | – | – | – | – | – | – | no biotransformation-related effect changes were detected | – | – | – | – | – | – | – | – | IC20 ([3]; read-out: NIS inhibition IC20 SM): 0.61 µM; IC50 ([5]; NIS IC50 HEK293T NIS 02): 7.1 ± 4.3 µM; IC20 [6]: 28.8 µM; IC50 [8]: 11.7 ± 8 µM
Cn1cc[nH]c1=S [MMI, Methimazole, reference compound] | – | -0.34 | – | – | n.e and n.e./ n.e. | – | – | – | n.e and n.e. / n.e. | n.e. / n.e. | n.e and n.e./ n.e. | n.e./ n.e. | n.e. | 200 (≈ 1750 mM) | – | – | Data from literature NIS IC50 [13]: n.e.; Data from literature NIS IC50 ([10]; ref Buckalew et al., 2020): n.e.; Data from literature NIS IC50 ([10]; ref Hallinger et al., 2017): n.e.; Data from literature NIS IC50 ([10]; ref Wang et al., 2019): n.e.
O=C(O)C(F)(F)C(F)(F)C(F)(F)C(F)(F)C(F)(F)C(F)(F)C(F)(F)F [PFOA, Perfluorooctanoic acid] | – | – | – | – | n.e and n.e./ n.e. | – | n.e. | – | n.e and n.e. / n.e. | n.e. / n.e. | n.e and n.e. / n.e. | n.e./ n.e. | n.e. | 3.3 (≈ 7.97 mM) | 25.1 | 75.9 | –
O=S(=O)(O)C(F)(F)C(F)(F)C(F)(F)C(F)(F)C(F)(F)C(F)(F)C(F)(F)C(F)(F)F [PFOS, Perfluorooctane sulfonate] | 9.3 µM and 9.31 µM | -1.08 | 4.34x10^-7 atm- m^3/mol | 30.9 ± 21.7 µM | n.e and n.e. / n.e. | 20.5 | – | – | – | n.e. | – | n.e. / n.e. | – | – | 0.4 | 1.3 | effect of fully active BTS (W/S9, W/cof) on NIS inhibition versus control setups ([3]; two-way ANOVA, p < 0.05): no significant differences were observed; IC50 ([10]; ref Wang et al., 2018): 16.6 µM; IC50 ([10]; ref Wang et al., 2019): 17 µM
CC(C)(c1cc(Br)c(O)c(Br)c1)c1cc(Br)c(O)c(Br)c1 [TBBPA, Tetrabromobisphenol A] | 91.8 ± 10.8 µM | 4.75 | 2.0x10^-7 atm- m^3/mol | 30.1 ± 11.8 µM | – | 91.1 | – | – | – | – | – | – | – | – | – | – | IC20 ([12]; read-out: NR IC20 FRTL-5, mean±SD, 2 h exposure): 33.4 µM; IC20 [16]: 66.8 µM; IC50 ([8]; mean ± SD, ≥ 3 independent experiments, 2 h exposure, SK reaction, read-out: NIS IC50 HEK293T NIS C): 54 ± 27.1 µM; IC20 ([14]; read-out: NR IC20 HEK293T NISC, mean±SD, 2 h exposure): 57.6 µM
